According to ChEMBL document CHEMBL4346757, “Synthesis and biological evaluation of 7-methoxy-1-(3,4,5-trimethoxyphenyl)-4,5-dihydro-2H-benzo[e]indazoles as new colchicine site inhibitors” (Bioorg Med Chem Lett, 2019):

Tests used:
Tubulin = Tubulin (Bos taurus, UniProt Q6B856+Q862L2+Q862F3); assay: Inhibition of bovine brain tubulin polymerization measured every 1 min for 60 mins by turbidimetry based microplate reader analysis
COLO 205 = assay: Antiproliferative activity against human COLO205 cells assessed as reduction in cell viability by MTT assay; type: functional, cell-based
HCT-116 = assay: Antiproliferative activity against human HCT116 cells assessed as reduction in cell viability by MTT assay; type: functional, cell-based

| Compound | IC50 (Tubulin; read-out: IC50) [nM] | IC50 (COLO 205) [nM] | IC50 (Tubulin) [nM] | IC50 (HCT-116) [nM] |
| --- | --- | --- | --- | --- |
| COc1ccc2c(c1)CCc1nn(-c3ccccc3)c(-c3cc(OC)c(OC)c(OC)c3)c1-2 | – | > 10000 | > 10000 | 5240 |
| CCOC(=O)Cn1nc2c(c1-c1cc(OC)c(OC)c(OC)c1)-c1ccc(OC)cc1CC2 | – | 8240 | > 10000 | > 10000 |
| COc1ccc(/C=C\c2cc(OC)c(OC)c(OC)c2)cc1O [COMBRETASTATIN A4] | – | 1 | – | 1 |

The next lines start with the values.

| IC50 (Tubulin; read-out: IC50) [nM] | IC50 (COLO 205) [nM] | IC50 (Tubulin) [nM] | IC50 (HCT-116) [nM] | Compound |
| --- | --- | --- | --- | --- |
| 6600 | 37 | – | – | COc1ccc(-c2[nH]nc3c2-c2cc(OC)c(OC)c(OC)c2CC3)cc1 |
| – | 560 | > 10000 | 1200 | COc1ccc2c(c1)CCc1nn(CCO)c(-c3cc(OC)c(OC)c(OC)c3)c1-2 |
| – | 19 | 1500 | 1 | COc1ccc2c(c1)CCc1nn(C)c(-c3cc(OC)c(OC)c(OC)c3)c1-2 |
